One series addresses T1, Human CCR3 (Homo sapiens, UniProt P51677).
T1 construct: The cloned CCR3 cDNA was constructed with pcDNA3 vector and transfected into a IC562 cell line; expressed in transfected cells
T1 sequence (P51677 1-355): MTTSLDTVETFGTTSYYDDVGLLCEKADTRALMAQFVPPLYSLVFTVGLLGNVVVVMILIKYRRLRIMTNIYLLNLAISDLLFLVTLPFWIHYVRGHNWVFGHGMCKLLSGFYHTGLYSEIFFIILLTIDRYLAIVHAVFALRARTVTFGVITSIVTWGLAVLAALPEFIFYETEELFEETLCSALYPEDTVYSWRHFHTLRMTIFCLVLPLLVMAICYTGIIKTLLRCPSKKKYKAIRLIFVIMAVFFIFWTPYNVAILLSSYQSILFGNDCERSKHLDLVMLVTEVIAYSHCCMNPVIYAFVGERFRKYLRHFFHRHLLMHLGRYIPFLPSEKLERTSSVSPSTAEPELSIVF
Description: Calcium mobilization assay, eotaxin-stimulated. The series is classed as cell-based. Conditions: human CCR3-transformed K562 cells, 10 nM eotaxin; compounds of about 40 to 90% purity; read-out: Activity grade Ca2+ (IC50 class). On the procedure: • Human CCR3-transformed K562 cells were used. The cloned CCR3 cDNA was constructed with pcDNA3 vector and transfected into a IC562 cell line. The human CCR3-transformed K562 cells were maintained in RPMI-1640 (Cat.#22400-089, Life Technologies) supplemented with 10% FCS (Cat.#A-1115-L, Hyclone), 55 μM 2-mercaptoethanol (Cat.#21985-023, Life Technologies), 1 mM sodium pyruvate (Cat.#11360-070, Life Technologies), 100 units/ml of penicillin G and 100 μg/ml of streptomycin (Cat.#15140-122, Life Technologies), and 0.4 mg/ml of Geneticin (Cat.#10131-035, Life Technologies)(hereinafter called “culture medium”). Before the receptor binding assay, cells were pretreated with 5 mM sodium butyrate (Cat.#193-01522, Wako)-containing the culture medium (2×10^5 cells/ml) for 20-24 hours to increase the expression of CCR3. (2) Receptor Binding Assay (RBA) • Butyrate-pretreated cells, suspended in binding buffer (25 mM HEPES pH 7.6, 1 mM CaCl2, 5 mM MgCl2, 0.5% BSA, 0.1% NaN3) at a cell density of 2×10^6 cells/ml, were added into 60 μl/well in the 96-well round bottom polypropylene plate (Cat.#3365, Costar). Compounds, diluted with the binding buffer (4-times higher concentration of the final concentration), were added into 30 μl/well in the polypropylene plate. [^125I]-labeled human eotaxin (Cat.#IM290, Amersham Pharmacia Biotech), diluted with the binding buffer at the concentration of 0.4 nM (final concentration; 0.1 nM), was added into 30 μl/well in the polypropylene plate. Total 120 μl/well of binding reaction mixture (60 μl/well of cell suspension, 30 μl/well of compound solution, and 30 μl/well of [^125I]-labeled eotaxin) were incubated in the polypropylene plate for 1 hour at room temperature after the incubation, 100 μl/well of the reaction mixture was transferred to a filtration plate (Cat.#MAFB-N0B, Millipore), and washed with the washing buffer (25 mM HEPES pH 7.6, 1 mM CaCl2, 5 mM MgCl2, 0.5% BSA, 0.1% NaN3, 0.5 M NaCl) twice. The 96-well filtration plate was pretreated with 100 μl/well of 0.5% polyethylenimine (Cat.#P-3143, Sigma) for 2-4 hours at room temperature and washed with the washing buffer twice before use. The non-specific binding was determined by parallel incubation in the presence of 500 nM of non-labeled eotaxin (Cat.#23209, Genzyme Techne). The radioactivities remained on the filter were measured by liquid scintillation counter (TopCount™, Packard) after an addition of 45 μl/well of scintillant (Microscint20, Cat.#6013621, Packard). The inhibition percent at each concentration of compound was calculated, and IC50 values were determined from the inhibition curve. [Determination of IC50 Values of Compounds in Calcium Mobilization Assay] (IC50 Ca2+) (1) Cell • Human CCR3-transformed K562 cells were used. The human CCR3-transformed K562 cells were maintained in RPMI-1640 supplemented with 10% FCS, 55 μM 2-mercaptoethanol (Cat.#21985-023, Life Technologies), 1 mM sodium pyruvate, 100 units/ml of penicillin G and 100 μg/ml of streptomycin and 0.4 mg/ml of Geneticin. Before the calcium mobilization assay, cells were pretreated with 5 mM sodium butyrate-containing the culture medium (2×10^5 cells/ml) for 20-24 hours to increase the expression of CCR3. (2) Calcium Mobilization Assay • Butyrate-pretreated cells were loaded with Fluo-3AM (Cat.#F-1242, Molecular Probes) in loading buffer (Hanks' solution Cat.#05906 Nissui, 20 mM HEPES pH 7.6, 0.1% BSA, 1 mM probenecid Cat.#P-8761 Sigma, 1 μM Fluo-3AM, 0.01% pluronic F-127 Cat.#P-6866 Molecular Probes) at a cell density of 1×10^7 cells/ml. Then, cells were washed with calcium assay buffer (Hanks' solution Cat.#05906 Nissui, 20 mM HEPES pH 7.6, 0.1% BSA, 1 mM Probenecid Cat.#P-8761 Sigma). The cell suspension (3.3×10^6 cells/ml) was added into 60 μl/well in the 96-well clear bottom black plate (Cat.#3904, Costar). Compounds, diluted (5-times concentration of the final concentration) with the calcium assay buffer, were added into 20 μl/well in the plate 10 minutes before assay. […]

Where a name gives a salt, the structure may show the parent alone. Some results are limits rather than exact numbers.

The melting point is the temperature of the solid-liquid transition. As usually defined, the IC50 is the concentration that inhibits the measured activity by half. `Cc1cc(C)cc(Oc2cc(C)ccc2S(=O)(=O)N2CCNCC2)c1.Cl` [Example 1-52] displayed a melting point of 136 °C. The IC50 at Human CCR3 is below 1 µM.
The molecule `Cc1cccc(Sc2ccc([N+](=O)[O-])cc2S(=O)(=O)N2CCNCC2)c1.Cl` [Example 2-16] had a melting point of 229 to 231 °C. For the same molecule, the IC50 on Human CCR3 was below 1 µM.
Taken in the same sequence, the figures for `O=C(O)CCN1CCN(S(=O)(=O)c2cc([N+](=O)[O-])ccc2Oc2cc(Cl)cc(Cl)c2)CC1` [Example 1-98] were 200 to 201 °C and below 1 µM.
Taken in the same sequence, the figures for `Cl.O=[N+]([O-])c1ccc(Sc2ccc3ccccc3c2)c(S(=O)(=O)N2CCNCC2)c1` [Example 2-21] were 273 °C and 1 to 10 µM.
In the same order, the values of `Cc1cc(Oc2ccc([N+](=O)[O-])cc2S(=O)(=O)N2CCNCC2)cc(C)c1C.Cl` [Example 1-69] are 248 °C and below 1 µM.
`CSCCCN1CCN(S(=O)(=O)c2cc(C#N)ccc2Sc2cc(Cl)cc(Cl)c2)CC1` [Example 17-2]: the melting point was 124 °C. The concentration for half-maximal inhibition (IC50) at Human CCR3 was below 1 µM.
Taken in the same sequence, the figures for `Cl.O=[N+]([O-])c1ccc(Sc2cccc(F)c2)c(S(=O)(=O)N2CCNCC2)c1` [Example 2-19] were 236 to 238 °C and below 1 µM.
In the same order, the values of `Cc1cc(C)cc(Sc2ccc([N+](=O)[O-])cc2S(=O)(=O)N2CCN(CC3CCCO3)CC2)c1` (stereo not drawn) [Example 4-28] are 143 to 144 °C and below 1 µM.
Taken in the same sequence, the figures for `CN(C)CC(C)(C)CN(C)S(=O)(=O)c1cc([N+](=O)[O-])ccc1Sc1cc(Cl)cc(Cl)c1` [Example 26-3] were 144 to 145 °C and below 1 µM.
`Cc1cc(C)cc(Oc2cccc(F)c2S(=O)(=O)N2CCNCC2)c1.Cl` [Example 1-58] yielded a melting point of 204 °C. Also, on Human CCR3, the IC50 is below 1 µM.
Taken in the same sequence, the figures for `Cl.O=[N+]([O-])c1ccc(Sc2cccc(Cl)c2)c(S(=O)(=O)N2CCNCC2)c1` [Example 2-17] were 235 to 237 °C and below 1 µM.
In the same order, the values of `CCOC(=O)CCN1CCN(S(=O)(=O)c2cc([N+](=O)[O-])ccc2Oc2cc(Cl)cc(Cl)c2)CC1` [Example 4-37] are 160 to 162 °C and below 1 µM.
In the same order, the values of `NCCNS(=O)(=O)c1cc([N+](=O)[O-])ccc1Sc1cc(Cl)cc(Cl)c1` [Example 2-5] are 189 °C and below 1 µM.
With `NCC1CCN(S(=O)(=O)c2cc([N+](=O)[O-])ccc2Oc2cc(Cl)cc(Cl)c2)CC1` [Example 1-97], the melting point lay within 148 to 151 °C. Moreover, the IC50 at Human CCR3 was below 1 µM.
The molecule `CN(c1cccnc1)S(=O)(=O)c1cc(C#N)ccc1Oc1cc(Cl)cc(Cl)c1.Cl` [Example 13-10] yielded a melting point of 104 °C. For the same molecule, the IC50 at Human CCR3 is below 1 µM.
In the same order, the values of `COc1cc(Oc2cc(Cl)cc(Cl)c2)c(S(=O)(=O)N2CCNCC2)cc1[N+](=O)[O-].Cl` [Example 1-50] are 181 °C and below 1 µM.
`COc1ccc(S(=O)(=O)N2CCNCC2)c(Oc2cc(C)cc(C)c2)c1.Cl` [Example 1-49]: the melting point was determined as 125 °C. Also, the IC50 on Human CCR3 was below 1 µM.
In the same order, the values of `Cc1cc(C)cc(Oc2cc(C)c(Cl)cc2S(=O)(=O)N2CCNCC2)c1.Cl` [Example 5-8] are 148 °C and below 1 µM.
In the same order, the values of `Cl.O=[N+]([O-])c1ccc(Sc2cc(C(F)(F)F)cc(C(F)(F)F)c2)c(S(=O)(=O)N2CCNCC2)c1` [Example 2-20] are 230 to 231 °C and below 1 µM.
Molecule `O=[N+]([O-])c1ccc(Oc2cc(Cl)cc(Cl)c2)c(S(=O)(=O)NC2CCNCC2)c1` [Example 1-78] came in with a melting point above 300 °C. Further, the IC50 on Human CCR3 was below 1 µM.
In turn, `CCN(CC)CCN1CCN(S(=O)(=O)c2cc([N+](=O)[O-])ccc2Oc2cc(Cl)cc(Cl)c2)CC1` [Example 4-30] displayed a melting point of 98 to 99 °C. Also, the IC50 at Human CCR3 was below 1 µM.
Taken in the same sequence, the figures for `O=C(O)CCN1CCN(S(=O)(=O)c2cc([N+](=O)[O-])ccc2Sc2cc(Cl)cc(Cl)c2)CC1` [Example 2-10] were 209 to 211 °C and below 1 µM.
With `Cl.O=[N+]([O-])c1ccc(Oc2cccc(-c3ccccc3)c2)c(S(=O)(=O)N2CCNCC2)c1` [Example 1-68], the melting point was 99 °C. The IC50 on Human CCR3 was below 1 µM.
Molecule `N#Cc1ccc(Sc2cc(Cl)cc(Cl)c2)c(S(=O)(=O)N2CCNCC2)c1` (as salt: hydrochloride) [Example 17-1, 4-[(3,5-dichlorophenyl)sulfanyl]-3-(1-piperazinylsulfonyl)benzonitrile hydrochloride] yielded a melting point of 82 °C.
Same read-out and setting: in the case of `N#Cc1ccc(Oc2cc(Cl)cc(Cl)c2)c(S(=O)(=O)N2CC[C@H](N)C2)c1` (as salt: hydrochloride) [Example 13-1, 1-{5-cyano-2-(3,5-dichlorophenoxy)phenylsulfonyl}-(3S)-aminopyrrolidine hydrochloride] it was 276 °C.
Same read-out and setting: in the case of `Cc1cc(C)cc(Oc2ccncc2S(=O)(=O)N2CCNCC2)c1` (as salt: hydrochloride) [Example 25-1, 1-{[4-(3,5-dimethylphenoxy)-3-pyridinyl]sulfonyl}piperazine hydrochloride] it was 220 °C; in that of `N#Cc1ccc(Oc2cc(Cl)cc(Cl)c2)c(S(=O)(=O)N2CCNCC2)c1` [Example 6-4], 179 to 181 °C.
The same measure, in the same setting: in the case of `CN(C)C(=O)c1ccc(Oc2cc(Cl)cc(Cl)c2)c(S(=O)(=O)N2CCNCC2)c1` (as salt: hydrochloride) [Example 10-1, 4-(3,5-dichlorophenoxy)-N,N-dimethyl-3-(1-piperazinylsulfonyl)benzamide hydrochloride] it was 197 to 199 °C; in that of `N#Cc1ccc(Oc2cc(Cl)cc(Cl)c2)c(S(=O)(=O)N2CCNCC2C(=O)O)c1` (stereo not drawn) [Example 13-9], 262 °C.
Turning to `N#Cc1ccc(Oc2cc(Cl)cc(Cl)c2)c(S(=O)(=O)N2C[C@H]3CCCN[C@H]3C2)c1` [Example 13-6], the melting point is 164 to 165 °C.
In turn, `Cc1cc(C)cc(Oc2ccc(S(=O)(=O)N3CCNCC3)cc2S(=O)(=O)N2CCNCC2)c1.Cl.Cl` yielded a melting point of 214 to 220 °C.

These data come from patent publication US8242118B2, “Arylsulfonamide derivatives for use as CCR3 antagonists in the treatment of inflammatory and immunological disorders” (Axikin Pharmaceuticals Inc., priority 2001, dated 2012).
